Values after ≈ are worked out from the molar mass of the structure shown.
Legend:
[1] = tested on: releasing of hydrogen peroxide (H2 O2) from the neutrocyte of abdominal cavity of rat; test: Inhibitory effect against the releasing of hydrogen peroxide (H2O2) from the neutrocyte of abdominal cavity of rat; format: cell-based, SD-strain rat; conditions: rat neutrocytes 10^6 cells/ml; FMLP 2×10^-6 M; 37° C., 1 hour; OD610
Method: Inhibitory effect against the releasing of hydrogen peroxide (H2 O2) from the neutrocyte of abdominal cavity of rat
1%-Casein solution was administered to the abdominal cavity of a SD-strain rat, then 16 hours after the administration, the neutrocytes were obtained by washing the abdominal cavity. Thus obtained neutrocytes were washed with Hank's solution.
In to a reaction mixture consisting of the following ingredients:
______________________________________
HRP (Horse Radish peroxide)
HEPES [N-(2-Hydroxyethyl)pipera-
zine N'-2-ethanesulfonic acid]
Rat neutrocytes 10^6 cells/ml
the test compound was added, then the whole mixture was incubated at 37° C. for 1 hour, and the mixture was subjected to a centrifugal separation at 2,000 rpm for minutes. After the centrifugal separation, 1 ml of the supernatant was sampled and 10 μl of 1N-NaOH aqueous solution was added thereto. Then, the optical absorbance at 610 nm (OD610) of the supernatant was determined by means of using a spectro-photometer.
The IC50 (50% inhibitory concentration) of the test compound was obtained by calculating as the ratio of OD610 of the test group sample to that of the control group sample.

[2] = tested on: superoxide radicals (O2^-) released from the peritoneal macrophage cells of guinea pig; test: Inhibitory effect against superoxide radicals (O2^-) released from the peritoneal macrophage cells of guinea pig by stimulation (FMLP); format: cell-based; conditions: Cavia porcellus, Peritoneal macrophage cell; guinea pig peritoneal macrophages 2×10^6 cells/ml; FMLP 10^-7 M; cytochrome C reduction, OD550
Method: Inhibitory effect against superoxide radicals (O2^-) released from the peritoneal macrophage cells of guinea pig by stimulation:
Mineral oil (15 ml)was intraperitoneally administered to a guinea pig, then 96 hours after the administration, the peritoneal macrophage cells were sampled.
Superoxide radicals (O2^-) were determined by means of reduction of cytochrome C method according to the procedure described in an article written by T. Matsumoto, K. Takeshige and S. Minakami: Biochemical and Biophysical Research Communications, Vol. 88, No. 3, pp. 974-979, (1979).
Into 1 ml of 80 μM-cytochrome C solution, the peritoneal macrophage cells were added to make the final concentration of 2×10^6 cells/ml, then each one of the test compounds of the present invention was added thereto to make the test group sample. On the other hand, water was added in place of the test compound of the present invention to make the control group sample. Each of the test group samples and the control group samples were subjected to pre-incubation at 37° C. for 1 minute.
As to the stimulating agent for releasing superoxide radicals (O2^-), FMLP (formylmethionyl leucyl phenylalanine)was added to each one of the test sample solutions and the control group samples to make the final concentration of FMLP to 10^-7 M, then the sample solutions were subjected to additional reaction by incubation for 1 minute.
Difference between the optical absorbances measured at 550 nm (OD550) of both test group samples and control group samples were determined, the 50% inhibitory concentration (IC50) was obtained by calculating as the ratio of OD550 of the test group sample to that of the control group sample.

[3] = tested on: releasing of lysozomal enzyme from the neutrocytes of rat; test: Inhibitory effect against the releasing of lysozomal enzyme from the neutrocytes of rat; format: cell-based; conditions: rat neutrocytes 5×10^5 cells/ml; FMLP 10^-6 M + cytocharasin B 5 μg/ml; OD540
Method: Inhibitory effect against the releasing of lysozomal enzyme from the neutrocytes of rat
The neutrocytes of rat were samples from the abdominal cavity of rat 16 hours after the administration of 10 ml of 1% casein solution (physiological saline solution).
Reaction of the releasing of lysozomal enzyme from the neutrocytes of rat was determined by means of the method as described in an article written by T. Matsumoto, K. Takeshige and S. Minakami: Biochemical and Biophysical Research Communications, Vol. 88, No. 3, pp 974-979, (1979).
The neutrocytes being sampled were added to Hank's solution so as to make the concentration thereof as 5×10^5 cells/ml, the test compound of piperazine derivative of the present invention was added thereto to make the test group sample. On the other hand, water was added in place of the piperazine derivative of the present invention to make the control group sample. Each of the test group samples and the control group samples were subjected to pre-incubation at 37° C. for 1 minute.
As to the stimulating agents, 10^-6 M of FMLP (formylmethionyl leucyl phenylalanine) and 5 μg/ml of cytocharasin B solution were added to the test solutions. Thus obtained mixture of the solution was reacted by incubating for 15 minutes. After the incubation, the mixture of the solution was subjected to centrifugation at 2,000 rpm for 10 minutes. The supernatant (0.2 ml) was admixed with 0.5 ml of 0.1 M-acetic acid buffer solution (pH 4.5) in which 0.2 mM of phenolphthalein glucuronic acid was dissolved. Then the resulting mixture of the solution was reacted at 37° C. for 5 hours by incubation. After the reaction, 1N-NaOH solution was added to the reaction mixture so as to make the pH value thereof to pH 8 to 9, and the optical absorbance of both test group samples and control group samples were determined at 540 nm (OD540).
The 50% inhibitory concentration (IC50) values were obtained by calculation as the ratio of OD540 of the test group sample to that of the control group sample.

Row | SMILES | IC50 [1] [µg/mL] | IC50 [2] [µg/mL] | IC50 [3] [µg/mL]
1 | COc1ccc(C[C@@H]2NC(=O)[C@H](CC(C)C)N(O)C2=O)c(OC)c1 (relative stereo) [Example 18] | 5 (≈ 14.9 µM) | – | –
2 | O=C1[C@@H]2CCCN2C(=O)[C@H](Cc2c[nH]c3ccccc23)N1O [Example 64] | < 3 | – | –
3 | CC(C)C[C@H]1C(=O)N[C@](Cc2ccccc2)(C(=O)Nc2nc3ccccc3s2)C(=O)N1O (racemic) [Example 27, (3RS,6SR)-3-(benzothiazol-2-yl)carbamoyl-3-benzyl-1-hydroxy-6-isobutylpiperazine-2,5-dione] | – | 0.25 (≈ 0.552 µM) | 3
4 | CC(C)C[C@@H]1NC(=O)[C@H](Cc2c[nH]c3ccccc23)N(O)C1=O [Example 47, (3S,6S)-1-Hydroxy-6-(3-indolylmethyl)-3-isobutylpiperazine-2,5-dione] | – | 10 (≈ 31.7 µM) | –
5 | COc1ccc(C[C@@H]2NC(=O)[C@@H](CC(C)C)N(O)C2=O)c(OC)c1 (relative stereo) [Example 19] | 5 (≈ 14.9 µM) | 30 (≈ 89.2 µM) | –
6 | CSCC[C@@H]1NC(=O)[C@H](Cc2c[nH]c3ccccc23)N(O)C1=O [Example 51] | 3 (≈ 9 µM) | 3 (≈ 9 µM) | –
7 | COc1cc(C[C@@H]2NC(=O)[C@H](CC(C)C)N(O)C2=O)cc(OC)c1O (relative stereo) [Example 17] | < 3 | – | –
8 | CC(C)C[C@@H]1C(=O)N[C@@H](Cc2ccccc2)C(=O)N1O [Example 10, (3S,6R)-3-Benzyl-1-hydroxy-6-isobutylpiperazine-2,5-dione] | – | 18 (≈ 65.1 µM) | –
9 | CC(C)C[C@@H]1C(=O)N[C@@H](Cc2cn(Cc3ccccc3)cn2)C(=O)N1O [Example 26] | 3 (≈ 8.42 µM) | 6 (≈ 16.8 µM) | –
10 | CC(C)C[C@@H]1NC(=O)[C@@H](Cc2c[nH]c3ccccc23)N(O)C1=O [Example 48, (3S, 6R)-1-Hydroxy-6-(3-indolylmethyl)-3-isobutylpiperazine-2,5-dione] | < 3 | – | –
11 | CC(C)C[C@@H]1C(=O)N[C@@H](Cc2cc(Cl)c(O)c(Cl)c2)C(=O)N1O [Example 21] | 10 (≈ 27.7 µM) | – | –
12 | COc1cccc(CNC(=O)[C@]2(Cc3ccccc3)NC(=O)[C@@H](CC(C)C)N(O)C2=O)c1 (relative stereo) [Example 28] | – | 3 (≈ 6.83 µM) | 3
13 | CC(C)C[C@@H]1C(=O)N[C@@H](Cc2ccc(O)cc2)C(=O)N1O [Example 11] | 6 (≈ 20.5 µM) | – | –
14 | O=C1N[C@@H](Cc2ccccc2)C(=O)N(O)[C@@H]1Cc1c[nH]c2ccccc12 [Example 50] | < 3 | – | –
15 | O=C1N[C@@H](COCc2ccccc2)C(=O)N(O)[C@@H]1Cc1c[nH]c2ccccc12 [Example 54] | 3 (≈ 7.91 µM) | – | –
16 | CSCC[C@@H]1NC(=O)[C@@H](Cc2c[nH]c3ccccc23)N(O)C1=O [Example 52] | – | 6 (≈ 18 µM) | –
17 | COc1cc(C[C@@H]2NC(=O)[C@H](CC(C)C)N(O)C2=O)cc(OC)c1OC (relative stereo) [Example 15] | < 3 | – | –
18 | CCOC(=O)[C@H]1NC(=O)[C@@H](Cc2c[nH]c3ccccc23)N(O)C1=O (relative stereo) [Example 55] | 3 (≈ 9.05 µM) | – | –
19 | COc1cccc(CNC(=O)[C@@]2(C)NC(=O)[C@H](CC(C)C)N(O)C2=O)c1 (racemic) [Example 29, (3RS,6SR)-1-hydroxy-6-isobutyl-3-[N-(3-methoxybenzyl)]carbamoyl-3-methylpiperazine-2,5-dione] | 5 (≈ 13.8 µM) | 3 (≈ 8.26 µM) | 2
20 | O=C1N[C@@H](Cc2ccccc2)C(=O)N(O)[C@H]1Cc1c[nH]c2ccccc12 [Example 49] | < 3 | 10 (≈ 28.6 µM) | –
21 | CC(C)C[C@H]1C(=O)N[C@@H](Cc2cc(Cl)c(O)c(Cl)c2)C(=O)N1O [Example 20] | – | 30 (≈ 83.1 µM) | 30
22 | O=C1N[C@@H](COCc2ccccc2)C(=O)N(O)[C@H]1Cc1c[nH]c2ccccc12 [Example 53] | – | 30 (≈ 79.1 µM) | –
23 | COc1cc(C[C@@H]2NC(=O)[C@@H](CC(C)C)N(O)C2=O)cc(OC)c1OC (relative stereo) [Example 16] | < 3 | 30 (≈ 81.9 µM) | –
24 | O=C1N[C@@H](Cc2ccc(O)cc2)C(=O)N(O)[C@H]1Cc1c[nH]c2ccccc12 [Example 60] | 6 (≈ 16.4 µM) | 10 (≈ 27.4 µM) | –
25 | CC(C)C[C@H]1C(=O)N[C@@H](Cc2ccccc2)C(=O)N1O [Example 9, (3S, 6s)-3-benzyl-1-hydroxy-6-isobutylpiperazine-2,5-dione] | < 6 | – | –

— patent US5607934A, “Piperazine derivatives and salts thereof” (Otsuka Pharmaceutical Co., Ltd., priority 1993, dated 1997)
